Experimental data published in PubChem BioAssay (NCI).
Where “and” joins values, the source holds several entries; their conditions need not be identical. Equal values may be shown once.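 How tested: cells in 96-well plates exposed to compound for 48 hours at five concentrations. At the GI50, growth is halved. TGI marks complete inhibition of growth.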

Tests used:
Assay in all cases: growth of human tumour cells (NCI), 48 h
[1] = test system: SF-539 CNS
[2] = test system: HOP-62 NSCLC
[3] = test system: SN12C renal
[4] = test system: 786-0 renal
[5] = test system: A549 NSCLC
[6] = test system: NCI-H226 lung
[7] = test system: OVCAR-3 ovarian
[8] = test system: SNB-75 CNS
[9] = test system: NCI-H460 lung
[10] = test system: EKVX NSCLC

| Structure (SMILES) | TGI [1] [µM] | TGI [2] [µM] | TGI [3] | TGI [4] [µM] | TGI [5] | TGI [6] | TGI [7] | TGI [8] | TGI [9] [µM] | TGI [10] | GI50 [1] [µM] | GI50 [3] [µM] | GI50 [4] [µM] | GI50 [5] [µM] | GI50 [6] [µM] | GI50 [7] | GI50 [9] [µM] | GI50 [10] | GI50 [2] [µM] | GI50 [8] [µM] |
| --- | --- | --- | --- | --- | --- | --- | --- | --- | --- | --- | --- | --- | --- | --- | --- | --- | --- | --- | --- | --- |
| NC1=NN(c2ccccc2)C(=O)C1C(=O)C(=O)Nc1ccc(Cl)cc1 (configuration not stated) | > 100 | > 100 | > 100 µM | > 100 | > 100 µM | > 100 µM | > 100 µM | > 100 µM | > 100 | > 100 µM |  |  |  |  |  |  |  |  |  |  |
| OCC#CCOCC#Cc1ccccc1C#CCOCC#CCO | > 100 |  | 80.9 µM | > 100 | > 100 µM | > 100 µM | > 100 µM |  | > 100 | > 100 µM | 47.4 | 26.7 | 34 | 50.9 | 41.4 | 38.1 µM | 48.6 | 41.3 µM |  |  |
| CC[C@@]1(O)C(=O)OCc2c1cc1n(c2=O)Cc2cc3cc(Cl)ccc3nc2-1 |  |  | 0.12 µM and 0.243 µM | 0.327 | 1.42 µM and 1.21 µM | 0.108 µM and 0.117 µM | 0.274 µM and 0.452 µM | 0.053 µM and 0.0414 µM | 0.0118 | 5.73 µM and 4.9 µM | 0.00467 | 0.00207 | 0.00519 | 0.00656 | 0.00345 | 0.0456 µM and 0.137 µM | < 0.001 | 0.282 µM and 0.302 µM | < 0.001 | 0.00253 |
| Nc1n[n+]([O-])c2cc([N+](=O)[O-])ccc2[n+]1[O-] | 16 | 22.3 | 18.1 µM | 17.3 | 44.6 µM | 30.7 µM | 15.2 µM | 83.4 µM | 16.1 |  |  |  |  |  |  |  |  |  |  |  |
| C#CCN(N=O)C(=O)NC(CCCCNC(=O)OCc1ccccc1)C(=O)OCc1ccccc1 (configuration not stated) |  | > 100 | 97.9 µM | 32.5 | > 100 µM |  | > 100 µM | 97.4 µM | > 100 | 55.3 µM |  |  |  |  |  |  |  |  |  |  |
| O=S(=O)(C1=CC(S(=O)(=O)c2ccccc2)COC1)c1ccccc1 (configuration not stated) | > 100 | > 100 | > 100 µM | > 100 | > 100 µM |  | > 100 µM | > 100 µM | > 100 | > 100 µM |  |  |  |  |  |  |  |  |  |  |
| O=C(COc1ccc(/C=C2\Oc3ccc4ccccc4c3C2=O)cc1)c1ccc([N+](=O)[O-])cc1 | 28.1 | 61.6 | 30.7 µM | 34.6 | > 100 µM | 39.1 µM | 17.4 µM | 13.6 µM | 40.2 | > 100 µM | 13.8 | 10.5 | 14.7 | 45 | 16.7 | 4.59 µM | 16.5 | 47.6 µM | 26.7 | 1.47 |
| O=CC(OC(=O)c1ccccc1)C(OC(=O)c1ccccc1)C(COC(c1ccccc1)(c1ccccc1)c1ccccc1)OC(=O)c1ccccc1 (configuration not stated) | 19.4 | 32.6 | 47.9 µM | 41 | 61.7 µM | 64.4 µM | 24.1 µM | 22.9 µM | 37.8 | 61.5 µM | 5.28 | 17.4 | 20 | 22.1 | 18.9 | 11 µM | 17.1 | 19.6 µM | 18.3 | 10.2 |
| N#CCCN(CCC#N)c1ccc(/C=C(/NC(=O)c2cc([N+](=O)[O-])ccc2Cl)C(=O)N=[N+]=[N-])cc1 | > 100 | > 100 | > 100 µM | > 100 | > 100 µM | > 100 µM | > 100 µM | > 100 µM | > 100 | > 100 µM |  |  |  |  |  |  |  |  |  |  |
| O/N=C1/CCC/C1=C\c1ccccc1 | > 100 | > 100 | > 100 µM | > 100 | > 100 µM | > 100 µM | > 100 µM | 44.8 µM | > 100 | > 100 µM |  |  |  |  |  |  |  |  |  |  |
| O=c1cc(-c2ccc(Cl)cc2)[nH]c2ccccc12 | > 100 | > 100 | > 100 µM | > 100 | > 100 µM | > 100 µM | > 100 µM | > 100 µM | > 100 | > 100 µM | 52.8 | > 100 | 64.8 | > 100 | > 100 | 31.2 µM | 39.6 | 51.4 µM | 61.4 | 37.4 |
| CC(=O)OC1C[C@H]2C(OC(=O)c3ccccc3)C3C4(OC(C)=O)COC4C[C@H](OC(C)=O)[C@@]3(C)C(OC(C)=O)[C@H](OC(C)=O)C(=C1C)C2(C)C (some centres not stated) | > 100 | > 100 | > 100 µM | > 100 | > 100 µM | > 100 µM | > 100 µM | 45.2 µM | > 100 | > 100 µM |  |  |  |  |  |  |  |  |  |  |
| Nc1cn(C2OC(CC(c3ccccc3)(c3ccccc3)c3ccccc3)C(O)C2O)c(=O)[nH]c1=O (configuration not stated) |  | 63.1 | 49.4 µM | 59.1 | 83.1 µM | > 100 µM | 37.9 µM | > 100 µM | 39.5 | > 100 µM |  |  |  |  |  |  |  |  |  |  |
| OCC1NC(COC2OC(CO)C(O)C(O)C2O)C(O)C(O)C1O (configuration not stated) | > 100 |  | > 100 µM | > 100 | > 100 µM | > 100 µM | > 100 µM | > 100 µM | > 100 |  |  |  |  |  |  |  |  |  |  |  |
| CC(=O)NNc1nc(C)c(C(=O)NNC(=O)C(=O)Nc2ccc(Cl)c([N+](=O)[O-])c2)s1 | > 100 | > 100 | > 100 µM | > 100 | > 100 µM | > 100 µM | 80.8 µM |  | > 100 | > 100 µM |  |  |  |  |  |  |  |  |  |  |
| COc1ccc(C(c2ccccc2C(=O)O)c2ccc(OC)c3ccccc23)c2ccccc12 | 24.4 | 30.2 | 29.7 µM | 30.5 | 31 µM | 63.5 µM | 26.6 µM |  |  | 49.8 µM |  |  |  |  |  |  |  |  |  |  |
| O=C(Nc1ccc(OS(=O)(=O)c2ccc(F)cc2)cc1)C12CC3CC(CC(C3)C1)C2 | > 100 | 30.6 | > 100 µM | 44.5 | > 100 µM | > 79.3 µM | 46.3 µM | 26.8 µM | > 100 |  | 0.75 | > 43.6 | 8.33 | 5.25 | 15 | 8.64 µM | 8.09 |  | 11.3 | 4.51 |
